The target in this experiment is T1, C-X-C chemokine receptor type 3 (Homo sapiens, UniProt P49682).
T1 sequence (P49682 whole entry): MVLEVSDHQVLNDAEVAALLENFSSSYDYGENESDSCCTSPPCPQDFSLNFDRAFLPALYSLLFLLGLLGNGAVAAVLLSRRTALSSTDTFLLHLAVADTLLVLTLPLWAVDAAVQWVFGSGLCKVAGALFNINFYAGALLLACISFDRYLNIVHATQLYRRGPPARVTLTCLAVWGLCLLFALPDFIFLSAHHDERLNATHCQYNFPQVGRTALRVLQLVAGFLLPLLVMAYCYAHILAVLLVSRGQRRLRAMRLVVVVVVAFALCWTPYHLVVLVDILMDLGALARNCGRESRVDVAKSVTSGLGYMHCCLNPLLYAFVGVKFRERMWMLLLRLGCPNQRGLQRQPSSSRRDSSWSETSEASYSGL
In words: Inhibitory concentration against […] expressed in human HEK293 cells using [125I]CXCL10 as radioligand. It counts as cell-based.

pIC50: −log10 of the molar value. Bounds are passed on as bounds.

As to `CCCCCCCCCC(=O)N(CCN(C)C)C(C)c1nc2ccccc2c(=O)n1-c1ccccc1C#N` (centres undefined), the pIC50 is 5.00.
Compound `CCCCCCCCCC(=O)N(CCN(C)C)C(C)c1nc2ccccc2c(=O)n1-c1ccc(C)cc1` (centres undefined) had a pIC50 of 5.51.
In the case of `CCCCCCCCCC(=O)N(CCN(C)C)C(C)c1nc2ccccc2c(=O)n1-c1ccc(C(F)(F)F)cc1` (centres undefined), the negative-log IC50 (pIC50) was under 4.00.
Consider `CCCCCCCCCC(=O)N(CCN(C)C)C(C)c1nc2ccccc2c(=O)n1-c1ccc(O)cc1` (centres undefined), for which the pIC50 was under 4.00.
The compound `CCCCCCCCCC(=O)N(CCN(C)C)C(C)c1nc2ccccc2c(=O)n1-c1cccc(C#N)c1` (centres undefined) had a negative-log IC50 (pIC50) of 5.24.
In the case of `CCCCCCCCCC(=O)N(CCN(C)C)C(C)c1nc2ccccc2c(=O)n1-c1ccccc1` (centres undefined), the pIC50 was 4.82.
Compound `CCCCCCCCCC(=O)N(CCN(C)C)C(C)c1nc2ccccc2c(=O)n1-c1ccc(OC)cc1` (centres undefined) had a pIC50 of 5.48.
In turn, `CCCCCCCCCC(=O)N(CCN(C)C)C(C)c1nc2ccccc2c(=O)n1-c1ccc(C#N)cc1` (centres undefined) gave a pIC50 of 6.03.
In the case of `CCCCCCCCCC(=O)N(CCN(C)C)C(C)c1nc2ccccc2c(=O)n1-c1ccc(F)cc1` (centres undefined), the negative-log IC50 (pIC50) was 5.49.

One may read the pIC50 as the IC50 on a negative log10 scale, so that one unit is a factor of ten. A high value points to a low IC50.

These data come from ChEMBL document CHEMBL1139603, “Synthesis and structure-activity relationship of 3-phenyl-3H-quinazolin-4-one derivatives as CXCR3 chemokine receptor antagonists” (Bioorg Med Chem Lett, 2005).
